{
  "source": "patent US10500146B2",
  "about": "“Composition for skin whitening comprising amorphigeni as effective ingredient” (INDUSTRY-ACADEMIC COOPERATION FOUNDATION GYEONGSANG …, priority 2015, dated 2019)",
  "format_in_all_cases": "cell-based",
  "key": {"[1]": {"system": "B16F10 mouse melanoma cells", "experiment": "Cell cycle measurement, PI staining, flow cytometer", "conditions": "FIG. 3"}, "[2]": {"system": "B16F10 mouse melanoma cells", "experiment": "Measurement of melanin content", "description": "Measurement of melanin content was carried out by slightly modifying the method by Yang et al. (Yang et al., 2006, Acta pharmacologica Sinica 27, 1467-73). Specifically, B16F10 cells were inoculated into a 6-well plate and cultured for 24 hours. Thereafter, the cells were treated with amorphigeni and α-MSH, each at 1 μM, followed by culture for 48 hours. The cultured cells were collected after being subjected to trypsinization and dissolution in 1 N NaOH containing DMSO for 24 hours at 65° C. By using a microplate reader (Bio-Rad), melanin content was measured at 415 nm.\nIn order to see whether or not amorphigeni can suppress the pigmentation induced by α-MSH (melanocyte-stimulating hormone), B16F10 cells were treated with α-MSH and amorphigeni, either separately or simultaneously, followed by incubation for 72 hours. […] Namely, it was able confirm that, by reducing melanin content, amorphigeni of the present invention can suppress […].\nFurthermore, after treating B16F10 melanin cells with α-MSH, amorphigeni, and 3MA all together for 48 hours, the melanin content and oxidation level of L-DOPA were measured (***P≤0.001).\nIn order to confirm whether or not amorphigeni causes degradation of melanosomes which have been previously produced by α-MSH, B16F10 melanin cells were treated for 48 hours with α-MSH to have synthesis of melanosomes. Thereafter, the cells were treated with amorphigeni for 48 hours, and melanin content was measured.\nFurthermore, in order to see whether or not amorphigeni causes degradation of previously produced melanosomes via autophagy, B16F10 melanin cells were treated with α-MSH for 48 hours to have synthesis of melanosome. After that, the cells were treated with 3MA as an autophagy inhibitor for 48 hours. Then, the melanin content and protein expression level of tyrosinase and PMEL were measured (ns=no significance, *P≤0.05, **P≤0.01, ***P≤0.001)."}, "[3]": {"system": "B16F10 mouse melanoma cells", "experiment": "Cell viability (MTT analysis)", "conditions": "amorphigeni at 100 nM and 1600 nM, 24 hours, FIG. 2", "description": "B16F10 cells were cultured for 24 hours in a 96-well plate. Thereafter, they were treated with amorphigeni at various concentrations, and cultured for 24 hours. Subsequently, a MTT solution (5 μg/mL) was added to the cells, which were then cultured for 3 hours. After removing the medium and treating the cells with DMSO, the cells were cultured for 20 minutes. By using a microplate reader (Bio-Rad), absorbance at 595 nm was measured.\nIn Example 1, to find out functional plant metabolites which induce depigmentation in melanin cells, amorphigeni was isolated from roots of Amorpha fruticosa (FIG. 1). To determine the cytotoxicity of amorphigeni, B16F10 cells were treated with amorphigeni at various concentrations followed by culture for 24 hours. Then, based on MTT (3-(4,5-dimethylthiazol-2-yl)-2,5-diphenyltetrazolium bromide) analysis, cell viability was determined."}},
  "data": [
    {"smiles": "C=C(CO)C1Cc2c(ccc3c2OC2COc4cc(OC)c(OC)cc4C2C3=O)O1", "note": "(stereo not drawn) [amorphigeni]", "values": [
      {"measurement": "cell death (cell cycle, PI staining)", "setting": "[1]", "result": "without inducing any cell death"},
      {"measurement": "content of the previously formed melanin", "setting": "[2]; α-MSH 48 hours, then amorphigeni 48 hours, FIG. 10", "result": "effectively lowered"},
      {"measurement": "melanin content (previously formed)", "setting": "[2]; α-MSH 48 hours, then amorphigeni and 3MA 48 hours, versus α-MSH and amorphigeni, FIG. 11", "result": "increased again"},
      {"measurement": "melanin content", "setting": "[2]; α-MSH and amorphigeni together versus α-MSH only, 72 hours, FIG. 4A", "result": "tend to decease"},
      {"measurement": "melanin content", "setting": "[2]; α-MSH, amorphigeni and 3MA together, 48 hours, versus α-MSH and amorphigeni, FIG. 9A", "result": "increased again"},
      {"measurement": "cytotoxicity (cell viability, MTT)", "setting": "[3]", "result": "low cytotoxicity"}
    ]}
  ]
}
